Assay results as given in patent publication US5744492A, “Method for inhibiting angiogenesis” (United States of America, priority 1994, dated 1998).

Key:
[1] = test system: chick chorioallantoic membrane; assay: Chick chorioallantoic membrane (CAM) angiogenesis assay; format: in vivo
Description: The chick chorioallantoic or yolk sac membrane (CAM) assays for angiogenesis are important in vivo models of microvessel formation. […] Briefly, fertilized chick embryos with the yolk intact were removed from their shells on day 3 of development and incubated at 37° C.

β-actin = assay: Northern blot, β-actin probe for quantitation of RNA load in HUVECs; format: cell-based, human; conditions: bFGF 10 ng/mL alone, 24 hr
Description: (§1) Human umbilical vein endothelial cells (H 930) were generously supplied by Dr. Tom Maciag, American Red Cross (Gaithersburg, Md., USA) and were used between passages 9 and 14 to avoid senescence. HUVECs were grown on fibronectin-coated tissue culture plastic (200 μg/150 mm dish) in complete medium (Medium 199 (M-199) containing 5 U/mL preservative-free heparin, 25.5 μg/mL ECGS, 10% fetal bovine serum and 100 U/mL penicillin, 100 μg/mL streptomycin, and 0.25 μg/mL fungizone).
(§2) HUVECs were grown to confluence as described. Fresh complete medium with test compounds was added to confluent cells for an additional 24 hr incubation. bFGF (10 ng/mL), and/or compound 1 (10 μM) or DMSO control (0.1%) were added as indicated below. Total RNA was isolated by the guanidine isothiocyanate/CsCl method. Aliquots of RNA (7.5 μg) were separated on 1% agarose/formaldehyde gels, passively transferred to GeneScreen Plus membrane in 20X SSC, then cross-linked with ultraviolet light. Blots were prewashed for 1 hr at 42° C. in 1M NaCl, 10 mM Tris, 1 mM EDTA, 0.1% SDS and then hybridized overnight at 42° C. with a formamide-containing buffer (hybridization buffer final: 50% formamide, 4X SSC, 10 mM Tris pH 7.5, IX Denhardt solution, 0.2% SDS, 125 μg/ml salmon sperm DNA) with a random-primed 300 bp insert for MMP-2 (gift of Dr. William Stetler-Stevenson, Laboratory of Pathology, NCI). Blots were washed under stringent conditions then exposed to film. After removal of MMP-2 probe, blots were rehybridized with β-actin probe for quantitation of the RNA load. Results were quantitated by densitometric evaluation of the autoradiographs.
(§3) Lane 1 corresponds to the mRNA from HUVECs treated with DMSO (control). Lanes 2-4 show the mRNA isolated from HUVECs treated with compound 1 (10 μM) alone, compound 1 (10 μM) and bFGF (10 ng/mL), bFGF (10 ng/mL) alone, respectively.

MMP-2 = assay: Northern blot analysis of MMP-2 expression in HUVECs; format: cell-based, human; conditions: bFGF 10 ng/mL alone, 24 hr
Description: as §1, §2, §3

[2] = positive control, 60μ (text: 60 μg)

Compound: NC(=O)c1nc[nH]c1N [AIC, aminoimidazole carboxamide, reference compound]
- % Inhibition (capillary formation in vivo) ([1]; 10 μM, 48 hr): 16%
- Eggs with avascular zones/total ([1]; 10 μM, 48 hr): 4/24
- angiogenesis inhibitory effect (in words) ([1]; 10 or 20 μM, 48 hr): inactive

Compound: C[C@]12CCC(=O)C=C1CC[C@@H]1[C@@H]2[C@@H](O)C[C@@]2(C)[C@H]1CC[C@]2(O)C(=O)CO [Hydrocortisone, hydrocortisone, reference compound]
- % Inhibition (capillary formation in vivo) [1, 2]: 55%
- Eggs with avascular zones/total [1, 2]: 10/18

Compound: bFGF: Recombinant basic fibroblast growth factor (bFGF)
- β-actin (densitometer) (β-actin): 205 Densitometer units
- Corrected values (MMP-2 mRNA corrected for loading) (MMP-2): 0.37
- MMP-2 (densitometer) (MMP-2): 77 Densitometer units
